Our source for the inhibition and IC50 values is US10544106B2, “Certain chemical entities, compositions, and methods” (NeuPharma, Inc., priority 2016, dated 2020).

One assay addresses BTK (Homo sapiens (Human), UniProt Q06187). The assay can be described thus: Z'-LYTE kinase inhibition assay against BTK. In kind it is biochemical. To be noted: for inhibition at 0.1 µM: compound at 100 nM, ATP concentration at Km; for IC50: series of concentrations, GraphPad Prism 5. The method, boiled down:
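Z′-LYTE FRET readout: 1.04-10.4 ng BTK with 2 μM Tyr 01 peptide, ATP at Km, in 50 mM HEPES pH 7.5, 10 mM MgCl2, 1 mM EGTA, 0.01% BRIJ-35, 1% DMSO. 60 min kinase reaction at room temperature, then 60 min development; IC50 from 10-point, 3-fold titrations.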

In a further assay the target is EGFR (ErbB1) L858R (Homo sapiens (Human), UniProt P00533, L858R). The assay is described as follows: Z'-LYTE kinase inhibition assay against EGFR L858R. In kind it is biochemical. To be noted: compound at 100 nM; ATP concentration at Km. The protocol:
(§1) Inhibitory activities of compounds against BTK, EGFR T790M, EGFR L858R, and EGFR L858R/T790M were measured using Z′-LYTE® Method from Life Technologies as briefly described in the following.
(§2) Test Compounds are screened in 1% DMSO (final) in the well. For 10 point titrations, 3-fold serial dilutions are conducted from the starting concentration. All ATP Solutions are diluted to a 4× working concentration in Kinase Buffer (50 mM HEPES pH 7.5, 0.01% BRIJ-35, 10 mM MgCl2, 1 mM EGTA). Peptide/Kinase Mixtures are diluted to a 2× working concentration in the appropriate Kinase Buffers as described below. • (i) Peptide/Kinase Mixtures for measurement of EGFR (ErbB1) L858R: • The 2×EGFR (ErbB1) L858R/Tyr 04 mixture is prepared in 50 mM HEPES pH 7.5, 0.01% BRIJ-35, 10 mM MgCl2, 4 mM MnCl2. 1 mM EGTA, 2 mM DTT. The final 10 μL Kinase Reaction consists of 0.2-1.68 ng EGFR (ErbB1) L858R and 2 μM Tyr 04 in 50 mM HEPES pH 7.5, 0.01% BRIJ-35, 10 mM MgCl2, 2 mM MnCl2, 1 mM EGTA, 1 mM DTT. After the 1 hour Kinase Reaction incubation, 5 μL of a 1:64 dilution of Development Reagent B is added. • (ii) Peptide/Kinase Mixtures for measurement of EGFR (ErbB1) T790M: The 2×EGFR (ErbB1) T790M/Tyr 04 mixture is prepared in 50 mM HEPES pH 6.5, 0.01% BRIJ-35, 10 mM MgCl2, 1 mM EGTA, 0.02% NaN3. The final 10 μL Kinase Reaction consists of 3.9-30.2 ng EGFR (ErbB1) T790M and 2 μM Tyr 04 in 50 mM HEPES pH 7.0, 0.01% BRIJ-35, 10 mM MgCl2, 1 mM EGTA, 0.01% NaN3. After the 1 hour Kinase Reaction incubation, 5 μL of a 1:64 dilution of Development Reagent B is added. • (iii) Peptide/Kinase Mixtures for measurement of EGFR (ErbB1) L858R/T790M: The 2×EGFR (ErbB1) T790M L858R/Tyr 04 mixture is prepared in 50 mM HEPES pH 6.5, 0.01% BRIJ-35, 10 mM MgCl2, 1 mM EGTA, 0.02% NaN3. The final 10 μL Kinase Reaction consists of 0.38-4.22 ng EGFR (ErbB1) T790M L858R and 2 μM Tyr 04 in 50 mM HEPES pH 7.0, 0.01% BRIJ-35, 10 mM MgCl2, 1 mM EGTA, 0.01% NaN3. After the 1 hour Kinase Reaction incubation, 5 μL of a 1:64 dilution of Development Reagent B is added. • (iv) Peptide/Kinase Mixtures for measurement of BTK: The 2×BTK/Tyr 01 mixture is prepared in 50 mM HEPES pH 7.5, 0.010/BRIJ-35, 10 mM MgCl2, 1 mM EGTA. The final 10 μL Kinase Reaction consists of 1.04-10.4 ng BTK and 2 μM Tyr 01 in 50 mM HEPES pH 7.5, 0.01% BRIJ-35, 10 mM MgCl2, 1 mM EGTA. After the 1 hour Kinase Reaction incubation, 5 μL of a 1:256 dilution of Development Reagent B is added.
(§3) Reaction starts by 30-second shaking of mixture consisting of 2.5 μL 4× test compound, 5 μL 2× kinase reaction mixture and 2.5 μL 4×ATP Solution on Bar-coded Corning, low volume NBS, black 384-well plate (Corning Cat. #3676). Then the mixture is incubated for 60-minute at room temperature for the kinase reaction, followed by addition of 5 μL of a 1:1024 dilution of development reagent A and 30-second plate shake. The mixture is then incubated for another 60-minute at room temperature for development reaction. Finally fluorescence is read by plate reader.
(§4) The Z′-LYTE assay was carried out with ATP concentration at Km. The scale utilized in Tables 2-6 is as follows: ++ more than 50% inhibition and + less than 50% inhibition.

The target of another assay is EGFR (ErbB1) T790M (Homo sapiens (Human), UniProt P00533, T790M). The assay is described as follows: Z'-LYTE kinase inhibition assay against EGFR T790M. In kind it is biochemical. To be noted: compound at 100 nM; ATP concentration at Km. The protocol: as §1, §2, §3, §4
The target of another assay is EGFR (ErbB1) L858R/T790M (Homo sapiens (Human), UniProt P00533, L858R/T790M). The assay is described as follows: Z'-LYTE kinase inhibition assay against EGFR L858R/T790M. To be noted: compound at 100 nM; ATP concentration at Km. In kind it is biochemical. The protocol:
as §1, §2, §3, §4

The target of a further assay is EGFR del746_750 (Homo sapiens (Human), UniProt P00533, DEL746-750). The assay can be described thus: SelectScreen Lantha method (Eu-anti-GST antibody/tracer) for EGFR del746_750. In kind it is binding. To be noted: compound at 100 nM; read-out: % Inhibition against EGFR del745_750. The protocol: SelecteScreen's Lantha® method from Life Technologies was used to measure compound's activities in inhibition of EGFR del746_750.
Test Compounds are screened in 1% DMSO (final) in the well. For 10 point titrations, 3-fold serial dilutions are conducted from the starting concentration. • Components for EGFR del745_750: • Kinase Buffer A: 50 mM HEPES pH 7.5, 0.01% BRIJ-35, 10 mM MgCl2, 1 mM EGTA • Kinase/Antibody Mixtures for EGFR del745_ 750: EGFR del745_ 750 10 nM, Antibody: Eu-anti-GST 2 nM, Tracer 199 10 nM, Inhibitor: SB202190 88.2 nM, All Kinase/Antibody Mixtures are diluted to a 2× working concentration in the appropriate Kinase Buffer • Tracer: The 4× AlexaFluor® labeled Tracer is prepared in Kinase Buffer.
To start the measurement, the following components are added to individual wells of bar-coded, low volume, white 384-well plate (Greiner Cat. #784207): • 1. 160 nL—100× Test Compound in 100% DMSO. • 2. 3.84 μL—Kinase Buffer: • 3. 8.0 μL—2× Kinase/Antibody Mixture • 4. 4.0 μL—4× Tracer The mixture above is then shaken for 30-second following by 60-minute incubation at room temperature. Finally the plate is read on fluorescence plate reader.
as §4

In the next assay the test system is OCI-Ly10 cells. The assay can be described thus: OCI-Ly10 cell proliferation assay (Alamar Blue, 72 hours). In kind it is cell-based. To be noted: Homo sapiens. The protocol:
OCI-Ly10 cells were cultured in Iscove's DMEM supplemented with 20% fetal bovine serum and 1× penicillin/streptomycin/glutamine. The cells were maintained in T175 flasks under 5% CO2 in a 37 ° C. humidified incubator for 5 days prior to plating and assay.
Cells were pooled by centrifugation (200 ref, 8 minutes) and resuspended in fresh medium to a concentration of 2.00E+05 cells/ml. 200 µl of the cell suspension was added to each well (40,000 cells/well) of a black-walled 96 well plate to which 1 μl of compound (n=3 per concentration) in 100% DMSO (0.5% final concentration) was added per well. Vehicle and cell free wells were also included in the assay. The dosed cells were cultured under normal conditions for 72 hours.
Cell proliferation is measured using the dye Alamar Blue (resazurin). Resazurin is reduced to resorufin by cellular enzymes and is fluorescent (544 nm excitation, 612 nm emission). Fluorescence intensity is proportional to cell number. Resazurin was prepared in PBS to a stock concentration of 440 μM. 40 μl of the 440 μM resazurin stock solution was added 3 hours prior to the 72 hour termination of the assay. The plate was returned to normal culture conditions and fluorescence measurements were collected using a Cytation3 multimode plate reader (Biotek) at 72 hours.
The scale utilized in Table 8 is as follows: ++ less than 50 nM and + greater than 50 nM.
A general note: The colour change of resazurin is a common sign of viable cells or microbes.

EGFR (ErbB1) L858R, sequence (P00533 25-1210 L858R): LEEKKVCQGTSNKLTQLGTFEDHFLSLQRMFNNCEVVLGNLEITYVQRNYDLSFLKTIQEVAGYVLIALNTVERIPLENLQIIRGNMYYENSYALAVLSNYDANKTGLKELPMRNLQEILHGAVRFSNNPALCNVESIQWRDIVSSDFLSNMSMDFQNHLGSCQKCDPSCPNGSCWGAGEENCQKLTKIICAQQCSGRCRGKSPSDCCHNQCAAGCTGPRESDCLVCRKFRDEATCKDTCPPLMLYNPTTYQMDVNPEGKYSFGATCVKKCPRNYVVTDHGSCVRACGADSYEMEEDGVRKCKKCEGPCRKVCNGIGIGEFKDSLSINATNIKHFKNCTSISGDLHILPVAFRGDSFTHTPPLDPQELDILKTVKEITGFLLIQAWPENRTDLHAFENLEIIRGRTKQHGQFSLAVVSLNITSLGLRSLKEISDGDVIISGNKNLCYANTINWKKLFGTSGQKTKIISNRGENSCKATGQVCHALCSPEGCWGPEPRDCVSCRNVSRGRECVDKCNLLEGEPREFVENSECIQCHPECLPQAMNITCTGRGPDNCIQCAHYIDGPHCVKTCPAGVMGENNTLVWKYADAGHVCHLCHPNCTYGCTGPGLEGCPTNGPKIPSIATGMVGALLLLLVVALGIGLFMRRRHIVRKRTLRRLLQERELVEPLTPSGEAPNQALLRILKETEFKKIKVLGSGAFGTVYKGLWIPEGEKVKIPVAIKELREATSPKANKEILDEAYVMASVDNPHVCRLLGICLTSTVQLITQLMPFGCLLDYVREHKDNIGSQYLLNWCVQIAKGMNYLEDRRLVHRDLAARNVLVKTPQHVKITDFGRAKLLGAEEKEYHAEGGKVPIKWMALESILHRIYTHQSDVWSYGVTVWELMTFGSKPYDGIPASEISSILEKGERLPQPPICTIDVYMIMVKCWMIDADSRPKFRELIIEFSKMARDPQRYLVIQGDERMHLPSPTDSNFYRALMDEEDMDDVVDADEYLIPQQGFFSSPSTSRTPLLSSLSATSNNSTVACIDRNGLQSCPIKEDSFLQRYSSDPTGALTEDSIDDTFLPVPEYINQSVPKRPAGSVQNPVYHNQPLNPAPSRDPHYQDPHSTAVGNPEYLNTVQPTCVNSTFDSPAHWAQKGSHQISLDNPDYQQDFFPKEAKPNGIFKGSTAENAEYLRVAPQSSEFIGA
EGFR (ErbB1) L858R/T790M, sequence (P00533 25-1210 T790M/L858R): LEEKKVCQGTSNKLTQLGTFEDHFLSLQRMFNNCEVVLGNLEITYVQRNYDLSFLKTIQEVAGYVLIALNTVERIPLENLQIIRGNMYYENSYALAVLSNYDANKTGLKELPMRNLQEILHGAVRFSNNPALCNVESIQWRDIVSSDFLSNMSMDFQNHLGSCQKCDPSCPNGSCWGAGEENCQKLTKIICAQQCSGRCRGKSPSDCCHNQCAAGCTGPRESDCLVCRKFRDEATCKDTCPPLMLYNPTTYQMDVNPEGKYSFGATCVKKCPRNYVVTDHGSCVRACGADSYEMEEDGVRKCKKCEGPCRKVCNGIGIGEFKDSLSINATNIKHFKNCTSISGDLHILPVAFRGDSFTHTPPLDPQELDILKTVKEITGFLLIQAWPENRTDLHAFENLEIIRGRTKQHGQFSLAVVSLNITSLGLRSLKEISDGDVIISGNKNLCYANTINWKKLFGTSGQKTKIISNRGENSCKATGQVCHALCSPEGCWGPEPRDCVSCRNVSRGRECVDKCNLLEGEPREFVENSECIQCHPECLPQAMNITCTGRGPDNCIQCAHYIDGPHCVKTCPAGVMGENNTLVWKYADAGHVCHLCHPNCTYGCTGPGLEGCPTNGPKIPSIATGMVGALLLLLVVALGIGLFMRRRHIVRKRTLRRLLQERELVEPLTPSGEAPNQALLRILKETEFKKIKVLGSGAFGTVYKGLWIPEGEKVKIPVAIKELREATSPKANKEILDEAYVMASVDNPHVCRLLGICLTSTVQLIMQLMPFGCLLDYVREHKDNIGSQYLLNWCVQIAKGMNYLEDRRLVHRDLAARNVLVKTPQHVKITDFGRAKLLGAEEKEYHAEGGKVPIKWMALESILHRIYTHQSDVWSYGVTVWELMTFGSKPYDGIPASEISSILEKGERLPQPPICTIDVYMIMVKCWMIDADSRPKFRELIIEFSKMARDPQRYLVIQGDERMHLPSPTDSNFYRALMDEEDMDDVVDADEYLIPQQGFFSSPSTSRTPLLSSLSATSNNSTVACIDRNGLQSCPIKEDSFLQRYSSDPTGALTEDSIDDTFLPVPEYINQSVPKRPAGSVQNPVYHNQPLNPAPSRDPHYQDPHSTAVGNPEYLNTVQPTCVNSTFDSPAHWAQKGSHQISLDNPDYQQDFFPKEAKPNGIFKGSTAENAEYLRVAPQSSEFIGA
EGFR del746_750, sequence (P00533 other isoform, or with tags, fused parts or gaps del E746-A750): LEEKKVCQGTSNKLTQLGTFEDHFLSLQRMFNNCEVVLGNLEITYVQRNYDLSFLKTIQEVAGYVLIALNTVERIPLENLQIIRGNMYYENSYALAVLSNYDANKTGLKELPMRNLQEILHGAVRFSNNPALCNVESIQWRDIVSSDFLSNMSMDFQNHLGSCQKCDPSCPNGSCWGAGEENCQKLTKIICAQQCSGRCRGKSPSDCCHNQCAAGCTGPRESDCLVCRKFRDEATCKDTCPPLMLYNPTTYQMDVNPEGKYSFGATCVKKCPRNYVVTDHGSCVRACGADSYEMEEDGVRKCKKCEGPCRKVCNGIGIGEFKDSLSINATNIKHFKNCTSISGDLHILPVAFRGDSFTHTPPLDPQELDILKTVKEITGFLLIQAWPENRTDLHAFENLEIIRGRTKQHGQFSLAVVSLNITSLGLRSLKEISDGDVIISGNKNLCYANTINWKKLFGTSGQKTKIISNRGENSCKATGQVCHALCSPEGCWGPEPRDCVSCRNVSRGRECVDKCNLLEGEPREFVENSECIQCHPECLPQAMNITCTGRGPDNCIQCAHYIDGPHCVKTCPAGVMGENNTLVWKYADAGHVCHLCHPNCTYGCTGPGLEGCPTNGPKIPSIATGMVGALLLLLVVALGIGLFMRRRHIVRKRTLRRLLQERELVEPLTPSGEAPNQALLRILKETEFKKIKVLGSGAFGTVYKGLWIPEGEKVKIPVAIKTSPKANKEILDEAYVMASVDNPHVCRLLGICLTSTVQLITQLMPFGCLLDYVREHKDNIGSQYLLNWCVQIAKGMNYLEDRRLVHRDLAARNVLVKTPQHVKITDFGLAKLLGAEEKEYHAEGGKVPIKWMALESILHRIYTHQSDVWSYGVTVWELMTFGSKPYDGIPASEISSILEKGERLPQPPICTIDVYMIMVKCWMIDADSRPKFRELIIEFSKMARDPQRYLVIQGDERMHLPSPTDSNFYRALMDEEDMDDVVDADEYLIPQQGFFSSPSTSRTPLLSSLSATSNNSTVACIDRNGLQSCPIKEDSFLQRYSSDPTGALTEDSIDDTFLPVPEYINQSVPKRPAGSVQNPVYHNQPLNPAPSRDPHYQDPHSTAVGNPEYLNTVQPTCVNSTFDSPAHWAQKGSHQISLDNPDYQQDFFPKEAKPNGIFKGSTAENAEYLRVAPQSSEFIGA
EGFR (ErbB1) T790M, sequence (P00533 25-1210 T790M): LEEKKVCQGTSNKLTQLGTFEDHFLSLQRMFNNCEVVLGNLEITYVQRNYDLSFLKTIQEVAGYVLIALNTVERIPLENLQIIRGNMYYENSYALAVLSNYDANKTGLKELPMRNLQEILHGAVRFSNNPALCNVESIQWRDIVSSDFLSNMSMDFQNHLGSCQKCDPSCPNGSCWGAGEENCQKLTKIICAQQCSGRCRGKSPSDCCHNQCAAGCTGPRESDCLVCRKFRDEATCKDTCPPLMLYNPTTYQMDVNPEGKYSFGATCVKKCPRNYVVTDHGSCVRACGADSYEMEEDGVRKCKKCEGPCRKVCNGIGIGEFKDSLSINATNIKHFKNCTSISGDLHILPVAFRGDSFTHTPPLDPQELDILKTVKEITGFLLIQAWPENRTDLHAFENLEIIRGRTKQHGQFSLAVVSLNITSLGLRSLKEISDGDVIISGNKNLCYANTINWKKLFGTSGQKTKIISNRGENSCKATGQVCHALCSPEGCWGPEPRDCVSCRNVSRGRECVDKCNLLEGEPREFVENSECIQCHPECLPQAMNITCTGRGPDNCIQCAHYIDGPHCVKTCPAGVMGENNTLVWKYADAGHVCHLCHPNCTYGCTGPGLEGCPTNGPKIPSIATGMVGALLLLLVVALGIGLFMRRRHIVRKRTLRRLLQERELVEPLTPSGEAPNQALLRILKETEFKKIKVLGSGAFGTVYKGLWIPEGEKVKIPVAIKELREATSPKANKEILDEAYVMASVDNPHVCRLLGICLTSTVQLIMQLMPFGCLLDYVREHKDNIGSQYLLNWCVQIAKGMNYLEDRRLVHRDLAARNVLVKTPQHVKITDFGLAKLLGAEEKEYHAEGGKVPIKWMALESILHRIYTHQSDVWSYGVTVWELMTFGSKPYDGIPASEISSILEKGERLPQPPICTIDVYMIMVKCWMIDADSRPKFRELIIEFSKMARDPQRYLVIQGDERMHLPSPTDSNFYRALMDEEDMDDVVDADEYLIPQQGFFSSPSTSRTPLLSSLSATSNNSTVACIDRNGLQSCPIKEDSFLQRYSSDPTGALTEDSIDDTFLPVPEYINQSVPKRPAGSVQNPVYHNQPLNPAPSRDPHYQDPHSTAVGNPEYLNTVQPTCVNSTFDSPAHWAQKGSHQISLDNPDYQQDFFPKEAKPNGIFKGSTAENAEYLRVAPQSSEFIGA

As to `C=CC(=O)Nc1cccc(-c2cc(-c3ccccc3Cl)cc3cnc(N)nc23)c1` [C003, N-(3-(2-amino-6-(2-chlorophenyl)quinazolin-8-yl)phenyl)acrylamide], the inhibition at 0.1 µM on BTK is > 50%; at EGFR (ErbB1) L858R it was > 50%; on EGFR (ErbB1) T790M it was < 50%; against EGFR (ErbB1) L858R/T790M it was < 50%; on EGFR del746_750, > 50%. Also, the half-maximal inhibitory concentration (IC50) against BTK was < 100 nM.

Turning to `C=CC(=O)Nc1cccc(-c2cc(-c3ccc(C(=O)Nc4ccccn4)cc3)cc3cncnc23)c1` [C008, 4-(8-(3-acrylamidophenyl)quinazolin-6-yl)-N-(pyridin-2-yl)benzamide], the inhibition at 0.1 µM against BTK was > 50%; against EGFR (ErbB1) L858R it was < 50%; on EGFR (ErbB1) T790M, < 50%; on EGFR (ErbB1) L858R/T790M it was < 50%; at EGFR del746_750 it was < 50%. In addition, the IC50 at BTK is < 100 nM; in the assay on OCI-Ly10 cells, < 50 nM.

For the molecule `C=CC(=O)Nc1cccc(-c2cc(-c3ccccc3Cl)cc3cncnc23)c1` [C013, N-(3-(6-(2-chlorophenyl)quinazolin-8-yl)phenyl)acrylamide], the inhibition at 0.1 µM on BTK is > 50%; on EGFR (ErbB1) L858R, > 50%; on EGFR (ErbB1) T790M it was < 50%; on EGFR (ErbB1) L858R/T790M it was < 50%; on EGFR del746_750, > 50%. Moreover, at BTK, the half-maximal inhibitory concentration (IC50) is < 100 nM.

As to `C=CC(=O)N1CCCC(c2cc(-c3ccc(C)nc3)cc3cnc(N)nc23)C1` (stereo not shown) [C042, 1-(3-(2-amino-6-(6-methylpyridin-3-yl)quinazolin-8-yl)piperidin-1-yl)prop-2-en-1-one], the inhibition at 0.1 µM against BTK, at EGFR (ErbB1) L858R, at EGFR (ErbB1) T790M, against EGFR (ErbB1) L858R/T790M and on EGFR del746_750 was < 50% each time.

As for `C=CC(=O)Nc1cccc(-c2cc(-c3ccc(C(=O)Nc4cccc(C(F)(F)F)c4)cc3)cc3cncnc23)c1` [C051, 4-(8-(3-acrylamidophenyl)quinazolin-6-yl)-N-(3-(trifluoromethyl)phenyl)benzamide], the inhibition at 0.1 µM against BTK, on EGFR (ErbB1) L858R, at EGFR (ErbB1) T790M, against EGFR (ErbB1) L858R/T790M and on EGFR del746_750 was > 50% in each case. In addition, on BTK, the half-maximal inhibitory concentration (IC50) was < 100 nM.

Consider `C=CC(=O)N1CCC(c2cc(-c3ccc(C(=O)Nc4cc(Cl)ccn4)cc3)n3cnccc23)C1` (stereo not shown) [C064, 4-(5-(1-acryloylpyrrolidin-3-yl)pyrrolo[1,2-c]pyrimidin-7-yl)-N-(4-chloropyridin-2-yl)benzamide], for which the inhibition at 0.1 µM was > 50% against BTK, < 50% at EGFR (ErbB1) L858R, < 50% on EGFR (ErbB1) T790M and < 50% at EGFR (ErbB1) L858R/T790M. The 50% inhibitory concentration (IC50) against BTK is < 100 nM.

With `C=CC(=O)Nc1cccc(-c2cc(-c3cccc(F)c3)cc3cncnc23)c1` [C073, N-(3-(6-(3-fluorophenyl)quinazolin-8-yl)phenyl)acrylamide], the inhibition at 0.1 µM against BTK is > 50%; against EGFR (ErbB1) L858R, > 50%; against EGFR (ErbB1) T790M, < 50%; at EGFR (ErbB1) L858R/T790M, < 50%; at EGFR del746_750, > 50%. On BTK, the IC50 was < 100 nM.

In the case of `C=CC(=O)Nc1cccc(-c2cc(-c3ccccc3)cc3cnc(Nc4ccccc4)nc23)c1` [C074, N-(3-(6-phenyl-2-(phenylamino)quinazolin-8-yl)phenyl)acrylamide], the inhibition at 0.1 µM against BTK is > 50%; against EGFR (ErbB1) L858R it was > 50%; against EGFR (ErbB1) T790M it was < 50%; at EGFR (ErbB1) L858R/T790M it was < 50%; at EGFR del746_750, > 50%. The half-inhibitory concentration (IC50) on BTK was < 100 nM.

As for `C=CC(=O)Nc1cccc(-c2cc(-c3cccnc3)cc3cnc(Nc4ccccc4)nc23)c1` [C076, N-(3-(2-(phenylamino)-6-(pyridin-3-yl)quinazolin-8-yl)phenyl)acrylamide], the inhibition at 0.1 µM against BTK was > 50%; at EGFR (ErbB1) L858R, > 50%; on EGFR (ErbB1) T790M, < 50%; on EGFR (ErbB1) L858R/T790M, < 50%; on EGFR del746_750, > 50%. Moreover, the IC50 against BTK was < 100 nM.

For `C=CC(=O)N1CCC(c2nc(-c3ccc(C(=O)Nc4cc(OC)ccn4)cc3)n3c(N)nccc23)C1` (stereo not shown) [C240, 4-(1-(1-acryloylpyrrolidin-3-yl)-5-amino-imidazo[1,5-c]pyrimidin-3-yl)-N-(4-methoxypyridin-2-yl)benzamide], the IC50 at BTK was < 100 nM; in the assay on OCI-Ly10 cells, < 50 nM.

The term inhibition denotes the drop in the measured response relative to a control, in per cent. One may read the IC50 as the concentration needed to halve the response being measured. Read a high IC50 as lower potency.
